# Experimental data published in patent US20260374773A1, “MULTI-CYCLIC IRAK AND FLT3 INHIBITING COMPOUNDS AND USES THEREOF” (CHILDREN'S HOSPITAL MEDICAL CENTER, priority 2022, published 2026).
# pIC50: −log10 of the molar value.
# Experiments:
# Type in all cases: biochemical
# Details in all cases: isolated kinase, 33P-ATP, 2 h
# [1] = target: T1, IRAK4 (Homo sapiens, UniProt Q9NWZ3); assay: RBC HotSpot kinase inhibition assay, IRAK4
# T1 sequence (Q9NWZ3 1-460): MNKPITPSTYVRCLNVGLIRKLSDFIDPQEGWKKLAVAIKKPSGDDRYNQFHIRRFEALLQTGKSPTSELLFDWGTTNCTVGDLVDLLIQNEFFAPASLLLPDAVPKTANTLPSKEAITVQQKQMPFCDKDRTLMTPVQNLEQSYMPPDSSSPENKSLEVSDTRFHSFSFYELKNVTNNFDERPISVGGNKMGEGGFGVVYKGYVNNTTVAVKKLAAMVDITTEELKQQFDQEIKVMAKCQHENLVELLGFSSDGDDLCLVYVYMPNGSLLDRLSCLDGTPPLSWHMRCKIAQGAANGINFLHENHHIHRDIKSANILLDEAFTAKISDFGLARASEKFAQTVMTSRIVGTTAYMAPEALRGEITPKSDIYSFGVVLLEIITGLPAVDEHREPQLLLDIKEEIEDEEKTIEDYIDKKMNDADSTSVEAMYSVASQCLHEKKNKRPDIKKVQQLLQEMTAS
# From the text: (§1) This assay uses the isolated kinase enzyme. This assay is very useful for determining competition of the inhibitor for ATP and/or substrates and for measuring the kinetics of enzyme inhibition. […] Unlike kinase binding assays that measure competition for ATP, the HotSpot Kinase Assay is a functional assay that measures catalytic activity; as such it measures relative functional potency regardless of the mechanism of enzyme inhibition. This assay uses the form of the various enzymes that are easiest to express, which may not necessarily be the form of the enzyme that exist in the cell. (Sometimes the carboxy terminus has been truncated to aid in expression, or, if it is a receptor kinase, the enzyme itself is isolated from the other parts of the receptor that are involved in regulating kinase activity.)
# (§2) The reagent used was as follows: Base Reaction buffer; 20 mM Hepes (pH 7.5), 10 mM MgCl2, 1 mM EGTA, 0.01% Brij35, 0.02 mg/ml BSA, 0.1 mM Na3VO4, 2 mM DTT, 1% DMSO. Required cofactors were added individually to each kinase reaction.
# (§3) The reaction procedure was as follows: • 1) Substrates were prepared in freshly prepared Reaction Buffer. • 2) Any required cofactors were delivered to the substrate solution above. • 3) Kinase was delivered into the substrate solution and gently mixed. • 4) Compounds were delivered in 100% DMSO into the kinase reaction mixture by Acoustic technology (Echo550; nanoliter range), followed by incubation for 20 min at room temp. • 5) ^33P-ATP was delivered into the reaction mixture to initiate the reaction. • 6) The mixture was incubated for 2 hours at room temperature. • 7) Kinase activity was detected by P81 filter-binding method.
# as §1, with “Although not wishing to be limited by theory, it is believed that sometimes” for “(Sometimes”, “activity.” for “activity.)”
# (§4) The reagent used was as follows: Base Reaction buffer; 20 mM Hepes (pH 7.5), 10 mM MgCl2, 1 mM EGTA, 0.01% Brij35, 0.02 mg/ml BSA, 0.1 mM Na3 VO4, 2 mM DTT, 1% DMSO.
# (§5) Required cofactors were added individually to each kinase reaction.
# as §3, with “33P-ATP” for “^33P-ATP”
# [2] = target: IRAK1 (Homo sapiens, UniProt P51617); assay: RBC HotSpot kinase inhibition assay, IRAK1
# From the text: as §1, §2, §3
# as §1, with “Although not wishing to be limited by theory, it is believed that sometimes” for “(Sometimes”, “activity.” for “activity.)”
# as §4, §5
# as §3, with “33P-ATP” for “^33P-ATP”
# [3] = target: T2, FLT3 (Homo sapiens, UniProt P36888); assay: RBC HotSpot kinase inhibition assay, FLT3
# T2 sequence (P36888 27-993): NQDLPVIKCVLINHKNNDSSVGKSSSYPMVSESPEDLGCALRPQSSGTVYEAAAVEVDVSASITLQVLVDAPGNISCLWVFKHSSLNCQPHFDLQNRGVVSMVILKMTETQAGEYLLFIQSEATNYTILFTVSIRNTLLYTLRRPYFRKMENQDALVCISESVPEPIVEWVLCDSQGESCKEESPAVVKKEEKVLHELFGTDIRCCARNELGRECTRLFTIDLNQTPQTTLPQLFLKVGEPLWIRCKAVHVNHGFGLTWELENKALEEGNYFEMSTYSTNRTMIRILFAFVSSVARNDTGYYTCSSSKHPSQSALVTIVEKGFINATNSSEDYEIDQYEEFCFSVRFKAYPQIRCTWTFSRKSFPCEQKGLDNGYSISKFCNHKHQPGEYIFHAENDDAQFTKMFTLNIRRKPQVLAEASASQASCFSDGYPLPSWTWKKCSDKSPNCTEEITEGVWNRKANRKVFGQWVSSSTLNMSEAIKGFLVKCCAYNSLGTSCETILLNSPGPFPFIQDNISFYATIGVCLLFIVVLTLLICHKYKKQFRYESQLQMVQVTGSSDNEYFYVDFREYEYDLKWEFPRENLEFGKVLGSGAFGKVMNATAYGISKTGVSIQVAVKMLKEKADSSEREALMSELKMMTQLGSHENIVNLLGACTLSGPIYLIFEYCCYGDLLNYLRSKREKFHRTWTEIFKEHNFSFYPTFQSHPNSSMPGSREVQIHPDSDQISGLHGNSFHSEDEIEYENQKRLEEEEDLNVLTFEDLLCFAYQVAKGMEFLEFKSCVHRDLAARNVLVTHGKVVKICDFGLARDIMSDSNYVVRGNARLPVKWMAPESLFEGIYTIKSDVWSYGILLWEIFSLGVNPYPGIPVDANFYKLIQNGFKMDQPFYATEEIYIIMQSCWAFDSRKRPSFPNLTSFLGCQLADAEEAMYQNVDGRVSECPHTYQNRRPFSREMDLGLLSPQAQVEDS
# From the text: as §1, §2, §3
# as §1, with “Although not wishing to be limited by theory, it is believed that sometimes” for “(Sometimes”, “activity.” for “activity.)”
# as §4, §5
# as §3, with “33P-ATP” for “^33P-ATP”
# Sequence of IRAK1 (P51617 whole entry): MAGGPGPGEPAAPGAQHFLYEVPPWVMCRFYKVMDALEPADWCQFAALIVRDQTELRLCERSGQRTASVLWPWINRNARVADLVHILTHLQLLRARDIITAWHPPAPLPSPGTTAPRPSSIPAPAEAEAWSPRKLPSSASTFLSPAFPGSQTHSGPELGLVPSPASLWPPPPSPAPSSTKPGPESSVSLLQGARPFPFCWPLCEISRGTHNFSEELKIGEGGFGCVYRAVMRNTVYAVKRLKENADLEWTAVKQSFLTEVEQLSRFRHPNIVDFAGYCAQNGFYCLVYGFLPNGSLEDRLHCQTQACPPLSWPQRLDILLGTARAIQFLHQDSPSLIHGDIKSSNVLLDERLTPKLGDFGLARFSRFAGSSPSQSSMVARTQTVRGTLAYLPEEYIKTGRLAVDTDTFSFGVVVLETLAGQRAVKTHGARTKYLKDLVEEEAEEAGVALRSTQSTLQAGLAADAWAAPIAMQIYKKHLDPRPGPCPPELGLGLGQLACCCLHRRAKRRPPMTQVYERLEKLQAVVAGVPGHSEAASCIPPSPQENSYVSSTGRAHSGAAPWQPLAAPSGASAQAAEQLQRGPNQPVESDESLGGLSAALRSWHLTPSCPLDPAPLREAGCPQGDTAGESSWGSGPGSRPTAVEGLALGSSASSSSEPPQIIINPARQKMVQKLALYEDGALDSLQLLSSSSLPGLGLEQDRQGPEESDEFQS
Structure (SMILES),pIC50 ([1]; Table 17),pIC50 ([2]; Table 17),pIC50 ([3]; Table 17),pIC50 ([1]; Table 11),pIC50 ([2]; Table 11),pIC50 ([3]; Table 11)
"COc1cn2ncc(-c3nc(N[C@H]4CNCC[C@@H]4F)ncc3F)c2nc1C(C)(C)O [Compound 6a, 2-(3-(5-fluoro-2-(((3S,4S)-4-fluoropiperidin-3-yl)amino)pyrimidin-4-yl)-6-methoxypyrazolo[1,5-a]pyrimidin-5-yl)propan-2-ol]",9.15,8.52,> 9.30,–,–,–
"COc1cn2ncc(-c3nc(N[C@H]4CNC[C@@H]4F)ncc3F)c2nc1C1CC1 [Compound 13a, 4-(5-cyclopropyl-6-methoxypyrazolo[1,5-a]pyrimidin-3-yl)-5-fluoro-N-((3S,4S)-4-fluoropyrrolidin-3-yl)pyrimidin-2-amine]",> 9.30,> 9.30,> 9.30,–,–,–
"COc1cn2ncc(-c3nc(N[C@@H]4CCCNC4)c(C#N)cc3F)c2nc1C(C)(C)O [Compound 9, (R)-5-fluoro-6-(5-(2-hydroxypropan-2-yl)-6-methoxypyrazolo[1,5-a]pyrimidin-3-yl)-2-(piperidin-3-ylamino)nicotinonitrile]",–,–,–,> 9.30,8.52,> 9.30
"COc1cn2ncc(-c3nc(N[C@@H]4CCCNC4)ncc3F)c2nc1C1CC1 [Compound 14a, (R)-4-(5-cyclopropyl-6-methoxypyrazolo[1,5-a]pyrimidin-3-yl)-5-fluoro-N-(piperidin-3-yl)pyrimidin-2-amine]",9.22,9.05,> 9.30,–,–,–
"COc1cn2ncc(-c3ccnc(N[C@H]4CNCC[C@@H]4F)n3)c2nc1C1CC1 [Compound 7a, 4-(5-cyclopropyl-6-methoxypyrazolo[1,5-a]pyrimidin-3-yl)-N-((3S,4S)-4-fluoropiperidin-3-yl)pyrimidin-2-amine]",9.00,8.10,> 9.30,–,–,–
"COc1cn2ncc(-c3ccc(F)c(N[C@H]4CNCC[C@@H]4F)n3)c2nc1C1CC1 [Compound 6, 6-(5-cyclopropyl-6-methoxypyrazolo[1,5-a]pyrimidin-3-yl)-3-fluoro-N-((3S,4S)-4-fluoropiperidin-3-yl)pyridin-2-amine]",–,–,–,9.22,8.40,> 9.30
"COc1cn2ncc(-c3ccc(F)c(N[C@@H]4CCCNC4)n3)c2nc1C1CC1 [Compound 5, (R)-6-(5-cyclopropyl-6-methoxypyrazolo[1,5-a]pyrimidin-3-yl)-3-fluoro-N-(piperidin-3-yl)pyridin-2-amine]",–,–,–,8.52,7.54,> 9.30
"COc1cn2ncc(-c3nc(N[C@H]4CNCC[C@@H]4F)ccc3F)c2nc1C1CC1 [Compound 3, 6-(5-cyclopropyl-6-methoxypyrazolo[1,5-a]pyrimidin-3-yl)-5-fluoro-N-((3S,4S)-4-fluoropiperidin-3-yl)pyridin-2-amine]",–,–,–,> 9.30,9.10,> 9.30
"COc1cn2ncc(-c3cccc(N[C@H]4CNC[C@@H]4F)n3)c2nc1C1CC1 [Compound 19, 6-(5-cyclopropyl-6-methoxypyrazolo[1,5-a]pyrimidin-3-yl)-N-((3S,4S)-4-fluoropyrrolidin-3-yl)pyridin-2-amine]",–,–,–,8.70,7.35,> 9.30
"COc1cn2ncc(-c3nc(N[C@H]4CNCC[C@@H]4F)c(F)cc3F)c2nc1C1CC1 [Compound 22, 6-(5-cyclopropyl-6-methoxypyrazolo[1,5-a]pyrimidin-3-yl)-3,5-difluoro-N-((3S,4S)-4-fluoropiperidin-3-yl)pyridin-2-amine]",–,–,–,> 9.30,> 9.30,> 9.30
"COc1cn2ncc(-c3nc(N[C@@H]4CCCNC4)ncc3F)c2nc1C(C)(C)O [Compound 4a, (R)-2-(3-(5-fluoro-2-(piperidin-3-ylamino)pyrimidin-4-yl)-6-methoxypyrazolo[1,5-a]pyrimidin-5-yl)propan-2-ol]",8.70,8.40,> 9.30,–,–,–
"COc1cn2ncc(-c3nc(N[C@H]4CNC[C@@H]4F)c(F)cc3F)c2nc1C1CC1 [Compound 24, 6-(5-cyclopropyl-6-methoxypyrazolo[1,5-a]pyrimidin-3-yl)-3,5-difluoro-N-((3S,4S)-4-fluoropyrrolidin-3-yl)pyridin-2-amine]",–,–,–,> 9.30,8.70,> 9.30
"COc1cn2ncc(-c3ccnc(N[C@H]4CNC[C@@H]4F)n3)c2nc1C1CC1 [Compound 8a, 4-(5-cyclopropyl-6-methoxypyrazolo[1,5-a]pyrimidin-3-yl)-N-((3S,4S)-4-fluoropyrrolidin-3-yl)pyrimidin-2-amine]",9.00,8.05,> 9.30,–,–,–
"COc1cn2ncc(-c3cccc(N[C@@H]4CCCNC4)n3)c2nc1C1CC1 [Compound 20, (R)-6-(5-cyclopropyl-6-methoxypyrazolo[1,5-a]pyrimidin-3-yl)-N-(piperidin-3-yl)pyridin-2-amine]",–,–,–,8.30,6.84,> 9.30
"COc1cn2ncc(-c3nc(N[C@H]4CNCC[C@@H]4F)c(C#N)cc3F)c2nc1C(C)(C)O [Compound 10, 5-fluoro-2-(((3S,4S)-4-fluoropiperidin-3-yl)amino)-6-(5-(2-hydroxypropan-2-yl)-6-methoxypyrazolo[1,5-a]pyrimidin-3-yl)nicotinonitrile]",–,–,–,> 9.30,8.70,> 9.30
"COc1cn2ncc(-c3ccnc(N[C@H]4CNCC[C@@H]4F)n3)c2nc1C(C)(C)O [Compound 3a, 2-(3-(2-(((3S,4S)-4-fluoropiperidin-3-yl)amino)pyrimidin-4-yl)-6-methoxypyrazolo[1,5-a]pyrimidin-5-yl)propan-2-ol]",7.82,6.68,9.15,–,–,–
